From the NIST ThermoML archive (doi:10.1021/je700254t)
± gives the expanded uncertainty stated by the source.

Experiment: xn = mol fraction of the nth substance listed
Conditions: 101.3 kPa, Liquid

c1ccccc1 [benzene] + CCCO
mass density [kg/m3]
Conditions | 288.15 K | 293.15 K | 298.15 K | 303.15 K | 308.15 K | 313.15 K
x2 = 0 | 884.246 ± 0.16 | 878.918 ± 0.17 | 873.582 ± 0.17 | 868.233 ± 0.17 | 862.871 ± 0.18 | 857.498 ± 0.18
x2 = 0.022 | 882.511 ± 0.16 | 877.177 ± 0.17 | 871.937 ± 0.17 | 866.489 ± 0.18 | 861.124 ± 0.18 | 855.764 ± 0.18
x2 = 0.0557 | 880.03 ± 0.17 | 874.714 ± 0.17 | 869.383 ± 0.17 | 864.034 ± 0.18 | 858.669 ± 0.18 | 853.296 ± 0.19
x2 = 0.0984 | 876.959 ± 0.17 | 871.673 ± 0.17 | 866.369 ± 0.18 | 861.047 ± 0.18 | 855.699 ± 0.18 | 850.343 ± 0.19
x2 = 0.1632 | 872.435 ± 0.17 | 867.203 ± 0.18 | 861.955 ± 0.18 | 856.682 ± 0.18 | 851.38 ± 0.19 | 846.063 ± 0.19
x2 = 0.2186 | 868.541 ± 0.18 | 863.367 ± 0.18 | 858.172 ± 0.18 | 852.95 ± 0.19 | 847.699 ± 0.19 | 842.427 ± 0.2
x2 = 0.2385 | 867.148 ± 0.18 | 861.999 ± 0.18 | 856.826 ± 0.19 | 851.625 ± 0.19 | 846.396 ± 0.19 | 841.156 ± 0.2
x2 = 0.3046 | 862.546 ± 0.18 | 857.468 ± 0.19 | 852.368 ± 0.19 | 847.234 ± 0.19 | 842.067 ± 0.2 | 836.875 ± 0.2
x2 = 0.3993 | 855.836 ± 0.19 | 850.881 ± 0.19 | 845.896 ± 0.2 | 840.877 ± 0.2 | 835.823 ± 0.2 | 830.744 ± 0.21
x2 = 0.4505 | 852.174 ± 0.19 | 847.288 ± 0.2 | 842.37 ± 0.2 | 837.417 ± 0.2 | 832.428 ± 0.21 | 827.425 ± 0.21
x2 = 0.5023 | 848.393 ± 0.2 | 843.581 ± 0.2 | 838.736 ± 0.21 | 833.856 ± 0.21 | 828.935 ± 0.21 | 823.986 ± 0.22
x2 = 0.6035 | 840.846 ± 0.21 | 836.186 ± 0.21 | 831.492 ± 0.21 | 826.762 ± 0.22 | 821.989 ± 0.22 | 817.183 ± 0.23
x2 = 0.66 | 836.494 ± 0.21 | 831.916 ± 0.22 | 827.312 ± 0.22 | 822.69 ± 0.22 | 817.981 ± 0.23 | 813.261 ± 0.23
x2 = 0.7035 | 833.115 ± 0.22 | 828.615 ± 0.22 | 824.081 ± 0.22 | 819.512 ± 0.23 | 814.9 ± 0.23 | 810.256 ± 0.23
x2 = 0.7453 | 829.801 ± 0.22 | 825.366 ± 0.22 | 820.902 ± 0.23 | 816.4 ± 0.23 | 811.856 ± 0.23 | 807.285 ± 0.24
x2 = 0.8016 | 825.211 ± 0.23 | 820.875 ± 0.23 | 816.507 ± 0.23 | 812.105 ± 0.24 | 807.61 ± 0.24 | 803.184 ± 0.24
x2 = 0.8447 | 821.474 ± 0.23 | 817.209 ± 0.23 | 812.998 ± 0.24 | 808.593 ± 0.24 | 804.229 ± 0.24 | 799.833 ± 0.25
x2 = 0.8981 | 816.954 ± 0.24 | 812.786 ± 0.24 | 808.589 ± 0.24 | 804.36 ± 0.24 | 800.093 ± 0.25 | 795.804 ± 0.25
x2 = 0.9495 | 812.375 ± 0.24 | 808.313 ± 0.24 | 804.141 ± 0.25 | 800.008 ± 0.25 | 795.838 ± 0.25 | 791.644 ± 0.26

CCCO [propan-1-ol] + ClC(Cl)Cl
x1 = 1
Conditions | mass density [kg/m3]
288.15 K | 807.69 ± 0.25
293.15 K | 803.703 ± 0.25
298.15 K | 799.692 ± 0.25
303.15 K | 795.65 ± 0.26
308.15 K | 791.576 ± 0.26
313.15 K | 787.466 ± 0.26

CCCO [propan-1-ol] + c1ccccc1
x1 = 1
Conditions | mass density [kg/m3]
288.15 K | 807.69 ± 0.25
293.15 K | 803.703 ± 0.25
298.15 K | 799.692 ± 0.25
303.15 K | 795.65 ± 0.26
308.15 K | 791.576 ± 0.26
313.15 K | 787.466 ± 0.26

ClC(Cl)Cl [trichloromethane] + CCCO
mass density [kg/m3]
Conditions | 288.15 K | 293.15 K | 298.15 K | 303.15 K | 308.15 K | 313.15 K
x2 = 0 | 1498.08 ± 0.48 | 1488.64 ± 0.47 | 1479.15 ± 0.46 | 1469.61 ± 0.45 | 1460.03 ± 0.45 | 1450.41 ± 0.44
x2 = 0.0493 | 1465.28 ± 0.47 | 1456.03 ± 0.46 | 1446.74 ± 0.46 | 1437.41 ± 0.45 | 1428.01 ± 0.44 | 1418.58 ± 0.44
x2 = 0.0992 | 1432.56 ± 0.45 | 1423.54 ± 0.44 | 1414.47 ± 0.43 | 1405.35 ± 0.43 | 1396.17 ± 0.42 | 1386.95 ± 0.41
x2 = 0.1499 | 1399.07 ± 0.42 | 1390.3 ± 0.42 | 1381.48 ± 0.41 | 1372.61 ± 0.41 | 1363.67 ± 0.4 | 1354.7 ± 0.39
x2 = 0.2002 | 1365.96 ± 0.4 | 1357.46 ± 0.4 | 1348.9 ± 0.39 | 1340.28 ± 0.38 | 1331.6 ± 0.38 | 1322.86 ± 0.37
x2 = 0.2496 | 1333.59 ± 0.38 | 1325.35 ± 0.37 | 1317.05 ± 0.37 | 1308.69 ± 0.36 | 1300.27 ± 0.35 | 1291.8 ± 0.35
x2 = 0.2999 | 1300.43 ± 0.36 | 1292.46 ± 0.35 | 1284.43 ± 0.34 | 1276.34 ± 0.34 | 1268.19 ± 0.33 | 1260.01 ± 0.33
x2 = 0.3493 | 1267.61 ± 0.34 | 1259.92 ± 0.33 | 1252.16 ± 0.32 | 1244.35 ± 0.32 | 1236.47 ± 0.31 | 1228.55 ± 0.31
x2 = 0.4004 | 1233.49 ± 0.31 | 1226.07 ± 0.31 | 1218.59 ± 0.3 | 1211.06 ± 0.3 | 1203.46 ± 0.29 | 1195.83 ± 0.28
x2 = 0.4502 | 1200.08 ± 0.29 | 1192.93 ± 0.28 | 1185.74 ± 0.28 | 1178.48 ± 0.28 | 1171.16 ± 0.27 | 1163.79 ± 0.26
x2 = 0.5001 | 1166.15 ± 0.27 | 1159.29 ± 0.26 | 1152.38 ± 0.26 | 1145.42 ± 0.25 | 1138.38 ± 0.25 | 1131.32 ± 0.24
x2 = 0.5497 | 1132.24 ± 0.25 | 1125.66 ± 0.24 | 1119.03 ± 0.24 | 1112.35 ± 0.23 | 1105.6 ± 0.23 | 1098.81 ± 0.23
x2 = 0.5999 | 1097.62 ± 0.23 | 1091.33 ± 0.22 | 1084.99 ± 0.22 | 1078.61 ± 0.21 | 1072.15 ± 0.21 | 1065.65 ± 0.21
x2 = 0.6497 | 1062.78 ± 0.21 | 1056.79 ± 0.2 | 1050.75 ± 0.2 | 1044.65 ± 0.2 | 1038.49 ± 0.19 | 1032.31 ± 0.19
x2 = 0.7001 | 1027.34 ± 0.19 | 1021.65 ± 0.19 | 1015.91 ± 0.18 | 1010.11 ± 0.18 | 1004.26 ± 0.18 | 998.364 ± 0.17
x2 = 0.7499 | 991.931 ± 0.18 | 986.531 ± 0.18 | 981.083 ± 0.18 | 975.586 ± 0.19 | 970.031 ± 0.19 | 964.415 ± 0.19
x2 = 0.7998 | 956.019 ± 0.2 | 950.913 ± 0.2 | 945.767 ± 0.2 | 940.572 ± 0.21 | 935.323 ± 0.21 | 930.03 ± 0.21
x2 = 0.8503 | 919.243 ± 0.22 | 914.435 ± 0.22 | 909.588 ± 0.22 | 904.699 ± 0.23 | 899.757 ± 0.23 | 894.778 ± 0.23
x2 = 0.9002 | 882.47 ± 0.24 | 877.949 ± 0.24 | 873.397 ± 0.25 | 868.803 ± 0.25 | 864.163 ± 0.25 | 859.496 ± 0.25
x2 = 0.95 | 845.487 ± 0.27 | 841.239 ± 0.27 | 836.96 ± 0.27 | 832.652 ± 0.27 | 828.298 ± 0.27 | 823.912 ± 0.28
